In brackets after ≈: the same amount, converted by molar mass.

Type in all cases: functional
Experiment [1] concerns Lomentospora prolificans. Kind of experiment: Antifungal activity against Scedosporium prolificans isolated from voriconazole treated scedosporiosis patient by broth microdilution method. For orientation: Broth dilution looks for growth in wells or tubes with falling amounts of substance.
Experiment [2] relates to Scedosporium apiospermum. Put plainly: Antifungal activity against Scedosporium apiospermum isolated from voriconazole treated scedosporiosis patient by broth microdilution method.
Experiment [3] deals with Lomentospora prolificans. Put plainly: Antifungal activity against Scedosporium prolificans isolated from compound treated scedosporiosis patient by broth microdilution method.
In experiment [4] the test system is Scedosporium apiospermum. Kind of experiment: Antifungal activity against Scedosporium apiospermum isolated from compound treated scedosporiosis patient by broth microdilution method.

In general, MIC50 refers to an inhibitory concentration at the 50% level, which refers to growth in some studies and to a panel of isolates in others. A low value points to greater potency. One may read the MIC90 as the lowest concentration that inhibits either 90% of growth or 90% of the strains tested, depending on the study. Lower therefore signals greater potency. Regarding `C[C@@H]1[C@H](O)[C@@H](C)/C=C/C=C/C=C/C=C/C=C/C=C/C=C/[C@H](O[C@@H]2O[C@H](C)[C@@H](O)[C@H](N)[C@@H]2O)C[C@@H]2O[C@](O)(C[C@@H](O)C[C@@H](O)[C@H](O)CC[C@@H](O)C[C@@H](O)CC(=O)O[C@H]1C)C[C@H](O)[C@H]2C(=O)O` [AMPHOTERICIN B], the results for the MIC50 in experiment [1] and in experiment [2] were 8 mg/L (≈ 8.66 µM) and 4 mg/L (≈ 4.33 µM), respectively. Besides, the MIC90 in experiment [1] was 16 mg/L (≈ 17.3 µM); in experiment [2], over 8 mg/L.
As to `CCC(C)n1ncn(-c2ccc(N3CCN(c4ccc(OCC5COC(Cn6cncn6)(c6ccc(Cl)cc6Cl)O5)cc4)CC3)cc2)c1=O` (configuration not stated) [ITRACONAZOLE], the MIC50 in experiment [1] amounted to 16 mg/L (≈ 22.7 µM); in experiment [2], 0.5 mg/L (≈ 0.709 µM). For the same compound, the MIC90 in experiment [1] turned out to be 16 mg/L (≈ 22.7 µM); in experiment [2], 2 mg/L (≈ 2.83 µM).
As for `C[C@@H](c1ncncc1F)[C@](O)(Cn1cncn1)c1ccc(F)cc1F` [VORICONAZOLE], the MIC50 in experiment [3] amounted to 4 mg/L (≈ 11.5 µM); in experiment [4], 0.25 mg/L (≈ 0.716 µM). In addition, the MIC90 in experiment [3] was 8 mg/L (≈ 22.9 µM); in experiment [4] it was 1 mg/L (≈ 2.86 µM).

The record behind these values is ChEMBL document CHEMBL1275407, “Treatment of scedosporiosis with voriconazole: clinical experience with 107 patients” (2008).
